The conditions of this data set: Liquid; pulse-heating method.

Numbers after ± are expanded uncertainties.

Regarding `O=C(O)CCc1ccccc1` [3-phenylpropanoic acid], the Critical pressure is on record as 3460 ± 120 kPa and the Critical temperature came to 776 ± 8 K.

For `O=C(O)CCCc1ccccc1` [4-phenylbutanoic acid], the Critical pressure was determined as 3210 ± 110 kPa and the Critical temperature is on record as 783 ± 8 K.

For `O=C(O)CCCCc1ccccc1` [5-phenylvaleric acid], the Critical pressure is given as 2950 ± 100 kPa and the Critical temperature is given as 790 ± 8 K.

On to `O=C(O)CCCCCc1ccccc1` [6-phenylhexanoic acid], for which the Critical pressure turned out to be 2600 ± 90 kPa and the Critical temperature turned out to be 794 ± 8 K.

Regarding `O=C(O)CCCCCCc1ccccc1` [7-phenylheptanoic acid], the Critical pressure came to 2470 ± 90 kPa and the Critical temperature was found to be 798 ± 8 K.

Regarding `O=C(O)Cc1ccccc1` [phenylacetic acid], the Critical pressure is listed as 3950 ± 140 kPa and the Critical temperature turned out to be 766 ± 8 K.

The record behind these values is the NIST ThermoML archive (doi:10.1021/je060078g).
